# Reference: the supplement of paper PMC11208160
# Assay: recombinant UMI read abundance after kanamycin selection (control-corrected) (log10(CPM+1)); higher = more efficient recombination; extreme values may be limits of the assay; sequences stand for … in AGTGCAGAGAAAATCGGCCAGTTTTCTCTGCCTGCAGTCCGCATGCCGTGGGACCCCTTGGGTTCTAACCTGTTGCCTAGATTTATGCAGCGGACTGCCTTTCTCCCAAAGTGATAAACCGG…AGGTTGGTTTCACT; site = the 11-nt donor
# How it was run: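 Sequencing read counts were converted to CPM, averaged over two replicates and scaled by control-derived factors. Results are given as log10(CPM+1). The reads covered the donor–target junction of recombinant UMIs from a pooled Escherichia coli screen of donor and donor-binding-loop pairs for the IS621 bridge recombinase.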
# 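Note: IS621 bridge recombinase in Escherichia coli cells against a fixed T5 target plasmid.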
row,Sequence,recombinant UMI read abundance (log10)
1,CTCAGATCATGGACCGGTTTTCCCGGTAATCCGTATTTGCA (site CTCAGATCTTG),1.82
2,CTCCAGTCATGGACCGGTTTTCCCGGTAATCCGTATTTGAG (site CTCCAGTCTCT),0.842
3,CTCCCAACATGGACCGGTTTTCCCGGTAATCCGTATTTGAG (site CTCCCAACTCT),0.687
4,CTCCCAACATGGACCGGTTTTCCCGGTAATCCGTATTTGAG (site CTCCCCACTCT),0.00702
5,CTCCCAACATGGACCGGTTTTCCCGGTAATCCGTATTTGAG (site CTCCCGACTCT),0.0167
6,CTCCCAACATGGACCGGTTTTCCCGGTAATCCGTATTTGAG (site CTCCCTACTCT),0.00578
7,CTCCCTCCATGGACCGGTTTTCCCGGTAATCCGTATTTGAG (site CTCCCTACTCT),0.00615
8,CTCCCTCCATGGACCGGTTTTCCCGGTAATCCGTATTTGAG (site CTCCCTCCTCT),0.0401
9,CTCCCTCCATGGACCGGTTTTCCCGGTAATCCGTATTTGAG (site CTCCCTGCTCT),0.009
10,CTCCCTCCATGGACCGGTTTTCCCGGTAATCCGTATTTGAG (site CTCCCTTCTCT),0.0108
11,CTCCTAACATGGACCGGTTTTCCCGGTAATCCGTATTTGGA (site CTACTAACTTC),0.00356
12,CTCCTAACATGGACCGGTTTTCCCGGTAATCCGTATTTGGA (site CTCCTAACTTC),0.655
13,CTCCTAACATGGACCGGTTTTCCCGGTAATCCGTATTTGGA (site CTGCTAACTTC),0.0178
14,CTCCTAACATGGACCGGTTTTCCCGGTAATCCGTATTTGGA (site CTTCTAACTTC),0.0149
15,CTCCTTACATGGACCGGTTTTCCCGGTAATCCGTATTTGAG (site CTCCATACTCT),0
16,CTCCTTACATGGACCGGTTTTCCCGGTAATCCGTATTTGAG (site CTCCCTACTCT),0.00731
17,CTCCTTACATGGACCGGTTTTCCCGGTAATCCGTATTTGAG (site CTCCGTACTCT),0
18,CTCCTTACATGGACCGGTTTTCCCGGTAATCCGTATTTGAG (site CTCCTTACTCT),0.201
19,CTCGACACATGGACCGGTTTTCCCGGTAATCCGTATTTGGA (site CTCGACACTTC),0.942

row,Sequence,recombinant UMI read abundance (log10)
1,CTCGCTACATGGACCGGTTTTCCCGGTAATCCGTATTTGAG (site CTCACTACTCT),0.085
2,CTCGCTACATGGACCGGTTTTCCCGGTAATCCGTATTTGAG (site CTCCCTACTCT),0.00726
3,CTCGCTACATGGACCGGTTTTCCCGGTAATCCGTATTTGAG (site CTCGCTACTCT),1.03
4,CTCGCTACATGGACCGGTTTTCCCGGTAATCCGTATTTGAG (site CTCTCTACTCT),0.139
5,CTCGGCCCATGGACCGGTTTTCCCGGTAATCCGTATTTGTT (site CACGGCCCTAA),0.0311
6,CTCGGCCCATGGACCGGTTTTCCCGGTAATCCGTATTTGTT (site CCCGGCCCTAA),0.0244
7,CTCGGCCCATGGACCGGTTTTCCCGGTAATCCGTATTTGTT (site CGCGGCCCTAA),0.0316
8,CTCGGCCCATGGACCGGTTTTCCCGGTAATCCGTATTTGTT (site CTCGGCCCTAA),0.0107
9,CTCGGCGCATGGACCGGTTTTCCCGGTAATCCGTATTTGCC (site CTCGGCGCTGG),2.12
10,CTCGGGCCATGGACCGGTTTTCCCGGTAATCCGTATTTGTG (site CTCGGGCCTCA),0
11,CTCGTATCATGGACCGGTTTTCCCGGTAATCCGTATTTGTC (site CTAGTATCTGT),0
12,CTCGTATCATGGACCGGTTTTCCCGGTAATCCGTATTTGTC (site CTCGTATCTGA),2.69
13,CTCGTCCCATGGACCGGTTTTCCCGGTAATCCGTATTTGTA (site CTCGTCCCTTA),1.66
14,CTCGTTACATGGACCGGTTTTCCCGGTAATCCGTATTTGTG (site CTCGTTACTCA),0.783
15,CTCTACACATGGACCGGTTTTCCCGGTAATCCGTATTTGCG (site CTCTACACTAG),0.613
16,CTCTACACATGGACCGGTTTTCCCGGTAATCCGTATTTGCG (site CTCTACACTCG),1.73
17,CTCTACACATGGACCGGTTTTCCCGGTAATCCGTATTTGCG (site CTCTACACTGG),0.00583
18,CTCTACACATGGACCGGTTTTCCCGGTAATCCGTATTTGCG (site CTCTACACTTG),0.829
19,CTCTACGCATGGACCGGTTTTCCCGGTAATCCGTATTTGCT (site CTCTACACTAG),0.475

row,Sequence,recombinant UMI read abundance (log10)
1,CTCTACGCATGGACCGGTTTTCCCGGTAATCCGTATTTGCT (site CTCTACCCTAG),0
2,CTCTACGCATGGACCGGTTTTCCCGGTAATCCGTATTTGCT (site CTCTACGCTAG),0.572
3,CTCTACGCATGGACCGGTTTTCCCGGTAATCCGTATTTGCT (site CTCTACTCTAG),2.89
4,CTCTCCTCATGGACCGGTTTTCCCGGTAATCCGTATTTGCC (site CACTCCTCTGG),2.68
5,CTCTCCTCATGGACCGGTTTTCCCGGTAATCCGTATTTGCC (site CCCTCCTCTGG),2.6
6,CTCTCCTCATGGACCGGTTTTCCCGGTAATCCGTATTTGCC (site CGCTCCTCTGG),2.57
7,CTCTCCTCATGGACCGGTTTTCCCGGTAATCCGTATTTGCC (site CTCTCCTCTGG),2.63
8,CTCTGGACATGGACCGGTTTTCCCGGTAATCCGTATTTGGA (site TGAGTCTCTCA),0
9,CTCTTGGCATGGACCGGTTTTCCCGGTAATCCGTATTTGGA (site CACTTGGCTTC),0.273
10,CTCTTGGCATGGACCGGTTTTCCCGGTAATCCGTATTTGGA (site CCCTTGGCTTC),0.169
11,CTCTTGGCATGGACCGGTTTTCCCGGTAATCCGTATTTGGA (site CGCTTGGCTTC),0.00297
12,CTCTTGGCATGGACCGGTTTTCCCGGTAATCCGTATTTGGA (site CTCTTGGCTTC),0.529
13,CTGAATCCATGGACCGGTTTTCCCGGTAATCCGTATTTGTG (site CGGAATCCTAA),0.00601
14,CTGAATCCATGGACCGGTTTTCCCGGTAATCCGTATTTGTG (site CTGAATCCTCA),0.684
15,CTGACCTCATGGACCGGTTTTCCCGGTAATCCGTATTTGTA (site CTGACCTCTTA),2.34
16,CTGAGATCATGGACCGGTTTTCCCGGTAATCCGTATTTGTA (site CTGAGATCTTA),2.8
17,CTGAGGCCATGGACCGGTTTTCCCGGTAATCCGTATTTGGT (site CTGAGGCCTAC),0
18,CTGATACCATGGACCGGTTTTCCCGGTAATCCGTATTTGCT (site CTGATACCTAG),0.00587
19,CTGATACCATGGACCGGTTTTCCCGGTAATCCGTATTTGCT (site CTGCTACCTAG),0
